This is an account of results in PubChem BioAssay (NCI).

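Five concentrations, 48 hours, 96-well plates. TGI denotes the concentration required for complete inhibition of growth.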

Test systems include SK-MEL-5 melanoma; SW-620 colon; BT-549 breast; MDA-N; HOP-62 NSCLC; NCI-H460 lung; HL-60(TB) leukemia; 786-0 renal; A498 renal; EKVX NSCLC; DU-145 prostate; RXF 393 renal; SK-OV-3 ovarian; SR leukemia; OVCAR-3 ovarian; SF-539 CNS.
Common to all, as to assay: inhibition of tumour cell growth, NCI panel, 48 h

Turning to `c1ccc2sc(SSSc3nc4ccccc4s3)nc2c1`, the TGI in the assay on SK-MEL-5 melanoma, in the assay with SW-620 colon, in the assay on BT-549 breast, with MDA-N, with HOP-62 NSCLC and in the assay on NCI-H460 lung was above 100 µM each time. Also, the TGI in the assay with HL-60(TB) leukemia, in the assay with 786-0 renal, with A498 renal, with EKVX NSCLC, with DU-145 prostate and with RXF 393 renal was above 100 µM throughout. Moreover, the TGI in the assay on SK-OV-3 ovarian and in the assay on SR leukemia was above 100 µM throughout.

Consider `C=C(Cl)/C(=C\Cl)CCC(Cl)C(C)C` (stereo unspecified) (tested in a mixture with another compound), for which the TGI with SK-MEL-5 melanoma came to 27.6 µM; in the assay with SW-620 colon, 7.5 µM; in the assay on BT-549 breast it was 29.3 µM; in the assay with MDA-N, 30.4 µM; with HOP-62 NSCLC, 32.6 µM; in the assay with NCI-H460 lung, 32.9 µM. Also, the TGI with HL-60(TB) leukemia is above 100 µM; in the assay on 786-0 renal, 29.5 µM; in the assay on OVCAR-3 ovarian, 30.1 µM; in the assay on A498 renal it was 34.6 µM; with EKVX NSCLC it was 33.3 µM; in the assay with DU-145 prostate it was 31.9 µM. Moreover, the TGI is 23.6 µM in the assay on RXF 393 renal, 44.5 µM with SK-OV-3 ovarian, 32.2 µM with SF-539 CNS and above 100 µM with SR leukemia.

On to `C[C@@H]1S[C@H](c2c(F)cccc2Cl)n2c1nc1ccccc12`, for which the TGI came out at 27.2 µM with SW-620 colon; 28.2 µM in the assay with BT-549 breast; 21.5 µM in the assay on MDA-N; 29.4 µM in the assay on HOP-62 NSCLC; 28.4 µM in the assay on 786-0 renal; 28.2 µM in the assay with OVCAR-3 ovarian. The TGI in the assay on EKVX NSCLC was 56 µM; in the assay on DU-145 prostate, above 100 µM; in the assay on RXF 393 renal, 28.8 µM; in the assay on SK-OV-3 ovarian, 55.9 µM; in the assay on SF-539 CNS it was 28.9 µM; with SR leukemia, 67.7 µM.

On to `CSC1=NN(C(C)=O)C(C(OC(C)=O)C(OC(C)=O)C(OC(C)=O)C(COC(C)=O)OC(C)=O)S1` (stereo unspecified), for which the TGI in the assay with SK-MEL-5 melanoma, in the assay with SW-620 colon, in the assay on BT-549 breast, with MDA-N, with HOP-62 NSCLC and in the assay with NCI-H460 lung was above 100 µM throughout. Also, the TGI in the assay on HL-60(TB) leukemia, in the assay with 786-0 renal, in the assay on OVCAR-3 ovarian, in the assay on A498 renal, in the assay with EKVX NSCLC and in the assay on DU-145 prostate was above 100 µM each time. Moreover, the TGI in the assay on RXF 393 renal, in the assay with SK-OV-3 ovarian, in the assay on SF-539 CNS and in the assay on SR leukemia was above 100 µM in each case.

With `CC1(c2ccccc2)O[C@@H]2C[C@H]3[C@@H]4CCC5=CC(=O)C=C[C@]5(C)[C@@]4(F)[C@@H](O)C[C@]3(C)[C@]2(C(=O)CO)O1` (stereo partly specified), the TGI in the assay on SK-MEL-5 melanoma stood at 28.2 µM; in the assay on SW-620 colon, 47.1 µM; in the assay on BT-549 breast it was 38.6 µM; in the assay on MDA-N it was 35.3 µM; in the assay with HOP-62 NSCLC it was 29.2 µM; with NCI-H460 lung it was 29.8 µM. For the same compound, the TGI with HL-60(TB) leukemia was 39.4 µM; in the assay with 786-0 renal, 32.2 µM; with OVCAR-3 ovarian, 28.7 µM; in the assay on A498 renal, 33.9 µM; with EKVX NSCLC it was 30.4 µM; with DU-145 prostate, 35 µM. Besides, the results for the TGI with RXF 393 renal and in the assay with SR leukemia were 36.3 µM and 76.9 µM, respectively.

Regarding `CC1=NN(c2ccc(S(=O)(=O)O)cc2)C2(C1)C(Cl)C(=O)N2c1nc2ccccc2s1` (stereo unspecified), the TGI with SK-MEL-5 melanoma, with SW-620 colon, in the assay on BT-549 breast, in the assay on MDA-N, in the assay on HOP-62 NSCLC and in the assay with NCI-H460 lung was above 100 µM throughout. Moreover, the TGI in the assay with HL-60(TB) leukemia, in the assay with 786-0 renal, with OVCAR-3 ovarian, with A498 renal, in the assay on EKVX NSCLC and in the assay with DU-145 prostate was above 100 µM each time. Further, the TGI in the assay on RXF 393 renal, in the assay with SK-OV-3 ovarian and in the assay with SR leukemia was above 100 µM throughout.

As to `Cc1c(C(=O)c2ccccc2)[n+](=O)c2cc(Cl)c(Cl)cc2n1[O-]`, the TGI was determined as 28.6 µM with SK-MEL-5 melanoma; 31.5 µM with BT-549 breast; 25.9 µM in the assay on MDA-N; 29.7 µM in the assay on HOP-62 NSCLC; 30.9 µM in the assay on NCI-H460 lung; 4.82 µM in the assay with HL-60(TB) leukemia. Moreover, the TGI in the assay on 786-0 renal was 29.3 µM; in the assay with OVCAR-3 ovarian, 25 µM; in the assay on A498 renal, 33.8 µM; in the assay on EKVX NSCLC, 26.3 µM; in the assay on DU-145 prostate it was 31.5 µM; in the assay with RXF 393 renal it was 19.2 µM. The TGI in the assay on SK-OV-3 ovarian stood at 41.4 µM; in the assay on SF-539 CNS, 32.5 µM; in the assay on SR leukemia, 3.32 µM.

For `O=C(c1cscc1CCc1ccccc1)c1cscc1CCc1ccccc1`, the TGI in the assay with SK-MEL-5 melanoma, with SW-620 colon, in the assay on BT-549 breast, in the assay on MDA-N, with HOP-62 NSCLC and with NCI-H460 lung was above 100 µM each time. Moreover, the TGI in the assay on 786-0 renal, in the assay on A498 renal, in the assay with EKVX NSCLC, in the assay with DU-145 prostate, with RXF 393 renal and with SK-OV-3 ovarian was above 100 µM each time. In addition, the TGI with SF-539 CNS and in the assay on SR leukemia was above 100 µM each time.

`CSc1c(C#N)c(=O)n(N)c2c1c(C)nn2-c1ccccc1`: the TGI with SK-MEL-5 melanoma was 28.7 µM; in the assay on SW-620 colon, above 100 µM; in the assay on BT-549 breast it was above 100 µM; in the assay with MDA-N, above 100 µM; in the assay on NCI-H460 lung it was above 100 µM; with HL-60(TB) leukemia it was 94.5 µM. The TGI in the assay on 786-0 renal is above 100 µM; in the assay with OVCAR-3 ovarian, 77 µM; with A498 renal, 65.8 µM; in the assay on EKVX NSCLC it was 78 µM; in the assay on DU-145 prostate, above 100 µM; in the assay with RXF 393 renal, 69.1 µM. In addition, the TGI in the assay on SK-OV-3 ovarian turned out to be 93.8 µM; in the assay with SF-539 CNS it was 55.5 µM; in the assay on SR leukemia it was 71.8 µM.
